This note sets out measurements from US20250122183A1 (Pfizer Inc., priority 2023, published 2025).

One test deals with KAT6A Full length enzyme (Homo sapiens (Human), UniProt Q92794). Nature of the test: KAT6A assay (SAMDI-MS acetylation of H3 1-21 peptide). The format is biochemical. Particulars: Morrison equation fit; replicate number in parentheses; read-out: KAT6A Ki (nM) (replicate number).
Test [1] addresses KAT7+JADE1+EAF6+ING5 4 protein complex (Homo sapiens (Human), UniProt O95251). As to the kind of experiment: KAT7 JADE1 assay (SAMDI-MS acetylation of H3 1-21 peptide). It is filed as biochemical. To be noted: Morrison equation fit; replicate number in parentheses; read-out: KAT7 JADE1 Ki (nM) (replicate number).

As usually defined, the Ki is a measure of affinity in units of concentration, obtained from inhibition or displacement.

Sequence of KAT6A Full length enzyme (Q92794 other isoform, or with tags, fused parts or gaps): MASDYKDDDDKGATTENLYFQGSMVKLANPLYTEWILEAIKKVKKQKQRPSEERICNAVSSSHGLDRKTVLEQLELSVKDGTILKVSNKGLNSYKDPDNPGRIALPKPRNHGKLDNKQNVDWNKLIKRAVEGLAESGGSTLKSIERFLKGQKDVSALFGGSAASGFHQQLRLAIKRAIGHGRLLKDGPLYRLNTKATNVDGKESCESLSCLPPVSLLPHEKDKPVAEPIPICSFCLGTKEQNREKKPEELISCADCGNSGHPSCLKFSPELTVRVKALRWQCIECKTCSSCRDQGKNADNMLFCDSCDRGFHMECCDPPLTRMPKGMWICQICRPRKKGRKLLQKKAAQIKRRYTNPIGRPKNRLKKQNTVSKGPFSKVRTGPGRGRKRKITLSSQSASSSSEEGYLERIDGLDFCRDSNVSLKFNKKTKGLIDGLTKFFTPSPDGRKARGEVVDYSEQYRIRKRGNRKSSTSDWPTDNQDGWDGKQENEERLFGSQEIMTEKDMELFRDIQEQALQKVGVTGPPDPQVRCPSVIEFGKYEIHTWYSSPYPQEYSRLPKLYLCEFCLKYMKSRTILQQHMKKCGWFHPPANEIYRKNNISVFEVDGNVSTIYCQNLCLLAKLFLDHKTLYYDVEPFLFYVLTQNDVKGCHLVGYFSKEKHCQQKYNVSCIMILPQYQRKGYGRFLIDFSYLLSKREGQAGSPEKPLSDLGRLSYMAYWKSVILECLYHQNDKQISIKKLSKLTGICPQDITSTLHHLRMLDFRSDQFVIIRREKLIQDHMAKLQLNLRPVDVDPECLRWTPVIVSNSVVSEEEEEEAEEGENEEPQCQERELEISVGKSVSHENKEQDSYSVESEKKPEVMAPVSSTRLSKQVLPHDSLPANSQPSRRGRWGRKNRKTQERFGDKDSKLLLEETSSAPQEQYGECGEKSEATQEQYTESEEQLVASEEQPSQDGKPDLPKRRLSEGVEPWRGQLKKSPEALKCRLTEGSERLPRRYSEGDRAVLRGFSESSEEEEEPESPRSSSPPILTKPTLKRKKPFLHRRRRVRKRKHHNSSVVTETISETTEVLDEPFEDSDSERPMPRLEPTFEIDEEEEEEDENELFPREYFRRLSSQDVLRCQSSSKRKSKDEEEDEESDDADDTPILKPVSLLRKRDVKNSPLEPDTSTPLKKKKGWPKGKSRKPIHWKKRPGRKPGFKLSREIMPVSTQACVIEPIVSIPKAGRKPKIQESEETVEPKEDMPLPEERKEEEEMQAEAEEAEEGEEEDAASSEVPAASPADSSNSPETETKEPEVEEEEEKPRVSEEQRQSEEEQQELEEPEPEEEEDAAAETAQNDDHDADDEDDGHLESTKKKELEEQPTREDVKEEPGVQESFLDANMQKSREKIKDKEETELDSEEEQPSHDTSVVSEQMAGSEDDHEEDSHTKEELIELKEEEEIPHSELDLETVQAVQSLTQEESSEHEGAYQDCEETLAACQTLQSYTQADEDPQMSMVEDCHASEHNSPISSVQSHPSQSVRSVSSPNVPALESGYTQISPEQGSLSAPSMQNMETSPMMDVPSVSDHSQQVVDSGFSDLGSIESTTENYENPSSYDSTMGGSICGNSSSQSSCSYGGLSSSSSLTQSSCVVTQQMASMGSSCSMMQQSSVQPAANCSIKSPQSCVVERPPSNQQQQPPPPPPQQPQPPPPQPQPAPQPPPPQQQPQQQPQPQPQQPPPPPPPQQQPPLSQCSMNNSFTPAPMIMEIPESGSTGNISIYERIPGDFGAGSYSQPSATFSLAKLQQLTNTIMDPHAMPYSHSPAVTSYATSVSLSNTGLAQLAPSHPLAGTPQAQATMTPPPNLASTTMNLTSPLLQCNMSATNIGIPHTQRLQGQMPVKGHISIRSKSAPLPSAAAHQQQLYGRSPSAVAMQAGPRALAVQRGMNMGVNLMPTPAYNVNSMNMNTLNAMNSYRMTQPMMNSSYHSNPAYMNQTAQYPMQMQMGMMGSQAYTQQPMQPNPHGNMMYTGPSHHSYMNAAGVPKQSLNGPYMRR

For the molecule `COc1cc2c(NS(=O)(=O)c3c(OC)cccc3OC)noc2cc1Nc1[nH]nc(C)c1C#N` [Example 45, N-{6-[(4-cyano-3-methyl-1H-pyrazol-5-yl)amino]-5-methoxy-1,2-benzoxazol-3-yl}-2,6-dimethoxybenzene-1-sulfonamide], the figures for the Ki (on KAT6A Full length enzyme; in test [1]) were 2.3 nM and 804 nM, respectively.

For the molecule `COc1cc2c(NS(=O)(=O)c3c(OC)cccc3OC)noc2cc1Nc1[nH]nc2c1CNC2` [Example 49, 2,6-dimethoxy-N-{5-methoxy-6-[(2,4,5,6-tetrahydropyrrolo[3,4-c]pyrazol-3-yl)amino]-1,2-benzoxazol-3-yl}benzene-1-sulfonamide], the values for the Ki (at KAT6A Full length enzyme; in test [1]) were 4 nM and over 2340 nM, respectively.

Turning to `COc1cc2c(NS(=O)(=O)c3c(OC)cccc3OC)noc2cc1Nc1cc(C(C)C)nn1C` [Example 51, 2,6-dimethoxy-N-(5-methoxy-6-{[1-methyl-3-(propan-2-yl)-1H-pyrazol-5-yl]amino}-1,2-benzoxazol-3-yl)benzene-1-sulfonamide], the figures for the inhibition constant (Ki) (on KAT6A Full length enzyme; in test [1]) were over 377 nM and over 4990 nM, respectively.

For `COc1cc2c(NS(=O)(=O)c3c(OC)cccc3OC)noc2cc1Nc1cc(C)nn1C(C)C` [Example 52, 2,6-dimethoxy-N-(5-methoxy-6-{[3-methyl-1-(propan-2-yl)-1H-pyrazol-5-yl]amino}-1,2-benzoxazol-3-yl)benzene-1-sulfonamide], the figures for the Ki (at KAT6A Full length enzyme; in test [1]) were 73.5 nM and over 12500 nM, respectively.

Regarding `COc1cc2c(NS(=O)(=O)c3c(OC)cccc3OC)noc2cc1Nc1ccn(C(C)C)n1` [Example 53, 2,6-dimethoxy-N-(5-methoxy-6-{[1-(propan-2-yl)-1H-pyrazol-3-yl]amino}-1,2-benzoxazol-3-yl)benzene-1-sulfonamide], the values for the Ki (on KAT6A Full length enzyme; in test [1]) were 19.8 nM and 441 nM, respectively.

`COc1cc2c(NS(=O)(=O)c3c(OC)cccc3OC)noc2cc1Nc1cc(C(=O)O)n[nH]1` [Example 54, 5-({3-[(2,6-dimethoxybenzene-1-sulfonyl)amino]-5-methoxy-1,2-benzoxazol-6-yl}amino)-1H-pyrazole-3-carboxylic acid]: the Ki was 2 nM on KAT6A Full length enzyme and over 2340 nM in test [1].

In the case of `COc1cc2c(NS(=O)(=O)c3c(OC)cccc3OC)noc2cc1Nc1[nH]nc(C)c1C(N)=O` [Example 57, 5-({3-[(2,6-dimethoxybenzene-1-sulfonyl)amino]-5-methoxy-1,2-benzoxazol-6-yl}amino)-3-methyl-1H-pyrazole-4-carboxamide], the Ki is 6.2 nM at KAT6A Full length enzyme and over 2340 nM in test [1].

Regarding `COc1cc2c(NS(=O)(=O)c3c(OC)cccc3OC)noc2cc1Nc1c(C(N)=O)c(C)nn1C` [Example 58, 5-({3-[(2,6-dimethoxybenzene-1-sulfonyl)amino]-5-methoxy-1,2-benzoxazol-6-yl}amino)-1,3-dimethyl-1H-pyrazole-4-carboxamide], the Ki at KAT6A Full length enzyme is 5.7 nM; in test [1] it was over 12500 nM.

As for `COCc1cc(Nc2cc3onc(NS(=O)(=O)c4c(OC)cccc4OC)c3cc2OC)n(C)n1` [Example 60, 2,6-dimethoxy-N-(5-methoxy-6-{[3-(methoxymethyl)-1-methyl-1H-pyrazol-5-yl]amino}-1,2-benzoxazol-3-yl)benzene-1-sulfonamide], the Ki on KAT6A Full length enzyme is over 377 nM; in test [1], over 12500 nM.

As to `COc1cc2c(NS(=O)(=O)c3c(OC)cccc3OC)noc2cc1Nc1nc[nH]n1` [Example 61, 2,6-dimethoxy-N-{5-methoxy-6-[(1H-1,2,4-triazol-3-yl)amino]-1,2-benzoxazol-3-yl}benzene-1-sulfonamide], the Ki on KAT6A Full length enzyme was 0.2 nM; in test [1] it was 54.7 nM.

`COCc1cc(Nc2cc3onc(NS(=O)(=O)c4c(OC)cccc4OC)c3cc2OC)[nH]n1` [Example 91, 2,6-dimethoxy-N-(5-methoxy-6-{[3-(methoxymethyl)-1H-pyrazol-5-yl]amino}-1,2-benzoxazol-3-yl)benzene-1-sulfonamide]: the Ki at KAT6A Full length enzyme came to 2.3 nM; in test [1], 802 nM.

Turning to `COc1cc2c(NS(=O)(=O)c3c(OC)cccc3OC)noc2cc1Nc1cc(C(F)(F)F)n[nH]1` [Example 93, 2,6-dimethoxy-N-(5-methoxy-6-{[3-(trifluoromethyl)-1H-pyrazol-5-yl]amino}-1,2-benzoxazol-3-yl)benzene-1-sulfonamide], the Ki on KAT6A Full length enzyme turned out to be 31.2 nM; in test [1], 729 nM.

For the molecule `CCOc1cc(C)c(F)cc1S(=O)(=O)Nc1noc2cc(Nc3n[nH]cc3F)c(OC)cc12` [Example 139, 2-Ethoxy-5-fluoro-N-{6-[(4-fluoro-1 H-pyrazol-3-yl)amino]-5-methoxy-1,2-benzoxazol-3-yl}-4-methylbenzene-1-sulfonamide], the inhibition constant (Ki) at KAT6A Full length enzyme amounted to 0.1 nM; in test [1] it was 128 nM.

On to `COc1cc2c(NS(=O)(=O)c3c(OC)cc(C4CN(C)CCC4(F)F)cc3OC)noc2cc1Nc1cc(C2CC2)[nH]n1` (stereo not shown) [Example 177, N-{6-[(5-cyclopropyl-1 H-pyrazol-3-yl)amino]-5-methoxy-1,2-benzoxazol-3-yl}-4-[4,4-difluoro-1-(^2H3)methylpiperidin-3-yl]-2,6-dimethoxybenzene-1-sulfonamide], for which the Ki at KAT6A Full length enzyme stood at 0.1 nM; in test [1] it was 0.2 nM.

With `COc1cc2c(NS(=O)(=O)c3c(OC)cc(C4C[C@H](F)CN4C)cc3OC)noc2cc1Nc1cc(C2CC2)n[nH]1` (stereo partly drawn) [Example 181, N-{6-[(3-cyclopropyl-1 H-pyrazol-5-yl)amino]-5-methoxy-1,2-benzoxazol-3-yl}-4-[(4S)-4-fluoro-1-methylpyrrolidin-2-yl]-2,6-dimethoxybenzene-1-sulfonamide], the figures for the Ki (at KAT6A Full length enzyme; in test [1]) were 2 nM and 6.2 nM, respectively.

Regarding `COc1cc2c(NS(=O)(=O)c3c(OC)cc(C4C[C@H](C)CN4C)cc3OC)noc2cc1Nc1cc(C2CC2)n[nH]1` (stereo partly drawn) [Example 182, N-{6-[(3-cyclopropyl-1H-pyrazol-5-yl)amino]-5-methoxy-1,2-benzoxazol-3-yl}-4-[(4S)-1,4-dimethylpyrrolidin-2-yl]-2,6-dimethoxybenzene-1-sulfonamide], the Ki at KAT6A Full length enzyme is 0.8 nM; in test [1] it was 6.4 nM.

Take `COc1cc2c(NS(=O)(=O)c3c(OC)cc([C@@H]4CCCN4C)cc3OC)noc2cc1Nc1cc(C2CC2)n[nH]1` [Example 189]: the Ki on KAT6A Full length enzyme was determined as 3.7 nM; in test [1], 20.8 nM.

Regarding `COc1cc2c(NS(=O)(=O)c3c(OC)cc(C4CC(F)CCN4C)cc3OC)noc2cc1Nc1cc(C2CC2)[nH]n1` (stereo not drawn) [Example 192, N-{6-[(5-cyclopropyl-1 H-pyrazol-3-yl)amino]-5-methoxy-1,2-benzoxazol-3-yl}-4-trans(4-fluoro-1-methylpiperidin-2-yl)-2,6-dimethoxybenzene-1-sulfonamide], the Ki on KAT6A Full length enzyme worked out at 2.4 nM; in test [1], 22.2 nM.

Regarding `COc1cc2c(NS(=O)(=O)c3c(OC)cc(C4CC(F)CCN4C)cc3OC)noc2cc1Nc1cc(C2CC2)[nH]n1` (stereo not drawn) [Example 193, N-{6-[(5-cyclopropyl-1 H-pyrazol-3-yl)amino]-5-methoxy-1,2-benzoxazol-3-yl}-4-trans(4-fluoro-1-methylpiperidin-2-yl)-2,6-dimethoxybenzene-1-sulfonamide], the values for the Ki (on KAT6A Full length enzyme; in test [1]) were 1.4 nM and 12 nM, respectively.

Regarding `COc1cc2c(NS(=O)(=O)c3c(OC)cc(CN4CCC(OC)CC4)cc3OC)noc2cc1Nc1cc(C2CC2)n[nH]1` [Example 194, N-{6-[(3-cyclopropyl-1 H-pyrazol-5-yl)amino]-5-methoxy-1,2-benzoxazol-3-yl}-2,6-dimethoxy-4-[(4-methoxypiperidin-1-yl)methyl]benzene-1-sulfonamide], the results for the Ki (at KAT6A Full length enzyme; in test [1]) were 1.7 nM and 6.3 nM, respectively.

For the molecule `COc1cc2c(NS(=O)(=O)c3c(OC)cc(CN4CCC[C@H](C)C4)cc3OC)noc2cc1Nc1cc(C2CC2)n[nH]1` [Example 195, N-{6-[(3-cyclopropyl-1H-pyrazol-5-yl)amino]-5-methoxy-1,2-benzoxazol-3-yl}-2,6-dimethoxy-4-{[(3S)-3-methylpiperidin-1-yl]methyl}benzene-1-sulfonamide], the Ki on KAT6A Full length enzyme came out at 2.5 nM; in test [1], 18.9 nM.

In the case of `COc1cc2c(NS(=O)(=O)c3c(OC)cc(CN4CCC(F)(F)C4)cc3OC)noc2cc1Nc1cc(C2CC2)n[nH]1` [Example 196, N-{6-[(3-cyclopropyl-1H-pyrazol-5-yl)amino]-5-methoxy-1,2-benzoxazol-3-yl}-4-[(3,3-difluoropyrrolidin-1-yl)methyl]-2,6-dimethoxybenzene-1-sulfonamide], the Ki at KAT6A Full length enzyme was 0.9 nM; in test [1], 4 nM.

`COc1cc2c(NS(=O)(=O)c3c(OC)cc(CN4CCCC(F)(F)C4)cc3OC)noc2cc1Nc1cc(C2CC2)n[nH]1` [Example 199, N-{6-[(3-cyclopropyl-1H-pyrazol-5-yl)amino]-5-methoxy-1,2-benzoxazol-3-yl}-4-[(3,3-difluoropiperidin-1-yl)methyl]-2,6-dimethoxybenzene-1-sulfonamide]: the inhibitory constant (Ki) on KAT6A Full length enzyme is 0.7 nM; in test [1] it was 5.2 nM.

For the molecule `COc1cc2c(NS(=O)(=O)c3c(OC)cc(CN4CC(C)C4)cc3OC)noc2cc1Nc1cc(C2CC2)n[nH]1` [Example 200, N-{6-[(3-cyclopropyl-1 H-pyrazol-5-yl)amino]-5-methoxy-1,2-benzoxazol-3-yl}-2,6-dimethoxy-4-[(3-methylazetidin-1-yl)methyl]benzene-1-sulfonamide], the Ki at KAT6A Full length enzyme came to 2.1 nM; in test [1], 17.2 nM.

As for `COc1cc2c(NS(=O)(=O)c3c(OC)cc(CN4CC[C@@H](C(F)F)C4)cc3OC)noc2cc1Nc1cc(C2CC2)n[nH]1` [Example 204], the results for the Ki (at KAT6A Full length enzyme; in test [1]) were 1.1 nM and 4.9 nM, respectively.

For the molecule `COc1cc2c(NS(=O)(=O)c3c(OC)cc(CN4CCC(C(F)(F)F)C4)cc3OC)noc2cc1Nc1cc(C2CC2)n[nH]1` (stereo not shown) [Example 205, N-{6-[(3-cyclopropyl-1H-pyrazol-5-yl)amino]-5-methoxy-1,2-benzoxazol-3-yl}-2,6-dimethoxy-4-{[3-(trifluoromethyl)pyrrolidin-1-yl]methyl}benzene-1-sulfonamide], the inhibitory constant (Ki) on KAT6A Full length enzyme was determined as 1.4 nM; in test [1], 6 nM.
